Results: ChEMBL document CHEMBL1177833, “Synthesis and biological activity of 2-hydroxynicotinoyl-serine-butyl esters related to antibiotic UK-3A” (Bioorg Med Chem Lett, 2010)
≈ marks a conversion by molar mass, not a printed value.

Experiments:
Candida albicans [1] = assay: Antimicrobial activity against Candida albicans after 18 to 24 hrs; type: functional
Artemia salina [2] = assay: Toxicity in Artemia salina assessed as mortality at 1000 ppm after 24 hrs; type: organism-based; details: in vivo
Artemia salina [3] = assay: Toxicity in Artemia salina assessed as mortality at 500 ppm after 24 hrs; type: organism-based; details: in vivo
Escherichia coli [4] = assay: Antimicrobial activity against Escherichia coli after 18 to 24 hrs; type: functional
Staphylococcus aureus [5] = assay: Antimicrobial activity against Staphylococcus aureus after 18 to 24 hrs; type: functional
Bacillus subtilis [6] = assay: Antimicrobial activity against Bacillus subtilis after 18 to 24 hrs; type: functional
Bacillus subtilis [7] = assay: Antimicrobial activity against Bacillus subtilis at 20 uL after 18 to 24 hrs by disk diffusion method; type: functional
Candida albicans [8] = assay: Antimicrobial activity against Candida albicans after 18 to 24 hrs at 20 uL by disk diffusion assay; type: functional
Artemia salina [9] = assay: Toxicity in Artemia salina assessed as mortality at 250 ppm after 24 hrs; type: organism-based; details: in vivo
Artemia salina [10] = assay: Toxicity in Artemia salina assessed as mortality at 100 ppm after 24 hrs; type: organism-based; details: in vivo
Staphylococcus aureus [11] = assay: Antimicrobial activity against Staphylococcus aureus at 20 uL after 18 to 24 hrs by disk diffusion method; type: functional
Escherichia coli [12] = assay: Antimicrobial activity against Escherichia coli at 20 uL after 18 to 24 hrs by disk diffusion method; type: functional
Artemia salina [13] = assay: Toxicity in Artemia salina after 24 hrs; type: organism-based; details: in vivo

Compound	MIC (Candida albicans [1]) [µg/mL]	LC50 (Artemia salina [2]) [ppm]	LC50 (Artemia salina [3]) [ppm]	MIC (Escherichia coli [4]) [µg/mL]	MIC (Staphylococcus aureus [5]) [µg/mL]	MIC (Bacillus subtilis [6]) [µg/mL]	diameter of the inhibition zone (DIZ) (Bacillus subtilis [7]) [mm]	diameter of the inhibition zone (DIZ) (Candida albicans [8]) [mm]	LC50 (Artemia salina [9]) [ppm]	LC50 (Artemia salina [10]) [ppm]	diameter of the inhibition zone (DIZ) (Staphylococcus aureus [11]) [mm]	diameter of the inhibition zone (DIZ) (Escherichia coli [12]) [mm]	LC50 (Artemia salina [13]) [ppm]
CCCCOC(=O)[C@H](COC(C)=O)NC(=O)c1cccnc1O	500 (≈ 1540 µM)	58.66	39.62	250 (≈ 771 µM)	250 (≈ 771 µM)	250 (≈ 771 µM)	7	7.5	9.7	4.94	7.5	7	811.01
CCCCCCCC(=O)OC[C@H](NC(=O)c1cccnc1O)C(=O)OCCCC	250 (≈ 612 µM)	11.02	2.78	75 (≈ 184 µM)	100 (≈ 245 µM)	50 (≈ 122 µM)	7	7.83	0	0	7	7	3620.41
CCCCOC(=O)[C@H](COC(=O)CCc1ccccc1)NC(=O)c1cccnc1O	1000 (≈ 2410 µM)	100	76.67	1000 (≈ 2410 µM)	1000 (≈ 2410 µM)	500 (≈ 1210 µM)	7	7.5	55.58	26.67	7.5	7.83	266.83
CCCC[C@H]1C(=O)O[C@H](C)[C@H](NC(=O)c2cccc(NC=O)c2O)C(=O)O[C@@H](C)[C@@H]1OC(=O)CC(C)C [ANTIMYCIN A3]	50 (≈ 96 µM)	–	–	50 (≈ 96 µM)	250 (≈ 480 µM)	250 (≈ 480 µM)	8.5	10	–	–	8	7	–
